Laboratory results as given in patent publication US5223526A, “Pyrazole carboxanilide fungicides and use” (Monsanto Company, priority 1992, dated 1993).
Read-outs that look alike come from different tables or passages of the source.

Key:
succinate dehydrogenase = target: T1, succinate dehydrogenase (Botrytis cinerea, UniProt A0A384J5E4+A0A384J8V8+A0A384JHJ5); experiment: Enzyme inhibition: succinate dehydrogenase activity in Botrytis cinerea mitochondria (DCPIP reduction); assay type: biochemical; conditions: concentration required to inhibit the rate of DCPIP reduction by 50%; Botrytis cinerea isolate Nick mitochondria; read-out: I50 (μM conc.)
T1 construct: succinate-DCPIP reductase assay with KCN
How it was run: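 Crude mitochondria from Botrytis cinerea isolate Nick mycelia, prepared by bead-beating and differential centrifugation, started reactions. SDH activity followed as DCPIP reduction at 600 nm in 50 mM K-phosphate pH 7.2 with 1 mM KCN, 45 μM DCPIP, 17 mM succinate, 1% acetone. I50 from semilog inhibition plots, corrected for succinate-free rates.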

Botrytis cinerea [1] = experiment: Eggplant grey mold; assay type: in vivo; set-up: scale not given here; conditions: inoculated 24 h later, rated after 3-4 days; for Disease Control Rating at 500 ppm: eggplant sprayed with 500 ppm; for Disease Control Rating at 20 ppm: eggplant sprayed with 20 ppm; for Disease Control Rating at 100 ppm: eggplant sprayed with 100 ppm
How it was run: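 Protective test: compound formulations (2:3 acetone:water, 0.5% Tween 20; 500, 100 or 20 ppm) sprayed on 14-18-day-old plants, with spore inoculum (4×10^6 spore/mL) applied a day later. Disease control rated on Botrytis lesions after 3-4 days at 23 °C and 100% humidity.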

Botrytis cinerea [2] = experiment: Vine grey mold (grape berries); assay type: in vivo; conditions: for pest or weed control at 50 ppm: read-out: % DISEASE CONTROL 50 ppm; for pest or weed control at 200 ppm: read-out: % DISEASE CONTROL 200 ppm
How it was run: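 Preventive berry test: compound at 50 or 200 ppm (acetone/water, 0.05% Tween 20) applied one day before inoculation with 10^6 spores/mL Botrytis conidia. After 7-10 days at 20 °C under 12 h light, infected surface area rated; disease control expressed as percent reduction from control mean; repeated-test values averaged.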

Rhizoctonia solani = experiment: Rice sheath blight; assay type: in vivo; set-up: scale not given here; conditions: inoculated two days later, rated after 7 days, average of five plants; for Disease Control Rating at 0.02 mg/mL: foliage and soil sprayed with 0.02 mg/mL; for Disease Control Rating at 0.1 mg/mL: foliage and soil sprayed with 0.1 mg/mL; for Disease Control Rating at 0.5 mg/mL: foliage and soil sprayed with 0.5 mg/mL
How it was run: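 Rice plants 11–15 days old had foliage and soil sprayed with 0.5, 0.1 or 0.02 mg/mL Compound A in water/acetone/Tween 20, then kept in flooded trays. Two days later, rice-grain Rhizoctonia solani inoculum went to plant bases; disease control scored versus untreated after 7 days at 25 °C, high humidity, averaging five plants.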

[3] = tested on: Botrytis cinerea Mitochondria; conditions: 1 μM concentration; cited from earlier work
[4] = grape berries treated with 50 ppm, average of six berries, 7-10 days
[5] = grape berries treated with 200 ppm, average of six berries, 7-10 days

T1 sequence (A0A384J5E4 1-300): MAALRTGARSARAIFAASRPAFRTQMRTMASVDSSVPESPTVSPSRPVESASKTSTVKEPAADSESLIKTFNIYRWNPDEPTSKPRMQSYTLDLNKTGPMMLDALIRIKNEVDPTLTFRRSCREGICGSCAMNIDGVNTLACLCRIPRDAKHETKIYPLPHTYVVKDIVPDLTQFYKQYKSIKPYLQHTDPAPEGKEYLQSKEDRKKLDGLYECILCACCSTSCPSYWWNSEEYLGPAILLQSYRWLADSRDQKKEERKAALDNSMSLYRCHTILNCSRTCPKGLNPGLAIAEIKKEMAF
T1 sequence (A0A384J8V8 1-189): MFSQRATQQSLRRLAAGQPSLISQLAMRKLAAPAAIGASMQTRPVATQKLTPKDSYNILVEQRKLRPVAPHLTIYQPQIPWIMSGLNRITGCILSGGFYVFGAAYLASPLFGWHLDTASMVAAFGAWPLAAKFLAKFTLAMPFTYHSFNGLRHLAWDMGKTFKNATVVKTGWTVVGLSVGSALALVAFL
T1 sequence (A0A384JHJ5 1-192): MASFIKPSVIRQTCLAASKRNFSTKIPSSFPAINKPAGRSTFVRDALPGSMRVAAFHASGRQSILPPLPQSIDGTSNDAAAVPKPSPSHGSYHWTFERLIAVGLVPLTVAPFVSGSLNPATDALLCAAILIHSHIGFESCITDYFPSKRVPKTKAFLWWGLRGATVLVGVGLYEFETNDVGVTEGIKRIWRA
T1 sequence (A0A384K456 1-647 partner): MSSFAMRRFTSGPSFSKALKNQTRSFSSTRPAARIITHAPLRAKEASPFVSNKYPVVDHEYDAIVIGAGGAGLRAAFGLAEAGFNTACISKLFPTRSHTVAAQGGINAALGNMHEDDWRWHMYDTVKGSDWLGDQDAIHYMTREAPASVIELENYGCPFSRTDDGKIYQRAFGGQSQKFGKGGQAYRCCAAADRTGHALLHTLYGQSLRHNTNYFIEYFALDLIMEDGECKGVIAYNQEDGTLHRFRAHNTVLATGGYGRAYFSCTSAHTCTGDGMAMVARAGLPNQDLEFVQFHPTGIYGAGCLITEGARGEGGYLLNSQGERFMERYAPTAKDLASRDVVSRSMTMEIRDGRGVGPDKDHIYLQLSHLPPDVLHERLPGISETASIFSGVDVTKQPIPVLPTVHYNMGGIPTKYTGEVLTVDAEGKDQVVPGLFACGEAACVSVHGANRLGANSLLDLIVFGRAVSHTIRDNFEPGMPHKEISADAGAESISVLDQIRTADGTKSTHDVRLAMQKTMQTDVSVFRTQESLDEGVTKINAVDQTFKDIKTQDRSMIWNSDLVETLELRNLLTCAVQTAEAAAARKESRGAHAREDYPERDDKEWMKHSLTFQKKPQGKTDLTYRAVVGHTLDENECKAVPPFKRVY

CC1=C(C(=O)Nc2ccccc2)SCCO1 [Carboxin, carboxin, reference compound]
IC50 (succinate dehydrogenase): 0.72 ± 0.3 µM
Disease Control Rating at 500 ppm (Botrytis cinerea [1]): 0
pest or weed control at 50 ppm (Botrytis cinerea [2]): 0%
pest or weed control at 200 ppm (Botrytis cinerea [2]): 0%
Disease Control Rating at 0.02 mg/mL (Rhizoctonia solani): 0
Disease Control Rating at 0.1 mg/mL (Rhizoctonia solani): 1
Disease Control Rating at 0.5 mg/mL (Rhizoctonia solani): 3
inhibition (respiratory inhibition) [3]: 68%

Cn1cc(C(=O)Nc2ccccc2OCC2CCC2)c(C(F)(F)F)n1 [Example 43, 1H-pyrazole-4-carboxamide, N-[2-(cyclobutylmethoxy)phenyl]-1-methyl-3-(trifluoromethyl)-]
IC50 (succinate dehydrogenase): 0.38 µM
Disease Control Rating at 500 ppm (Botrytis cinerea [1]): 0
pest or weed control at 50 ppm (Botrytis cinerea [2]; [4]): 3%
pest or weed control at 200 ppm (Botrytis cinerea [2]; [5]): 0%
Disease Control Rating at 0.02 mg/mL (Rhizoctonia solani): 2
Disease Control Rating at 0.1 mg/mL (Rhizoctonia solani): 3
Disease Control Rating at 0.5 mg/mL (Rhizoctonia solani): 3

Cc1ccc(OC2CCCCC2)c(NC(=O)c2cn(C)nc2C(F)F)c1 [Example 96, 1H-pyrazole-4-carboxamide, N-[2-(cyclohexyloxy)-5-methylphenyl]-3-(difluoromethyl)-1-methyl-]
IC50 (succinate dehydrogenase): 0.43 µM
Disease Control Rating at 500 ppm (Botrytis cinerea [1]): 0
pest or weed control at 50 ppm (Botrytis cinerea [2]; [4]): 0%
pest or weed control at 200 ppm (Botrytis cinerea [2]; [5]): 0%
Disease Control Rating at 0.5 mg/mL (Rhizoctonia solani): 0

Cn1cc(C(=O)Nc2ccccc2[C@@H]2C[C@H]3CC[C@@H]2C3)c(Br)n1 (relative stereo) [Example 65, 1H-pyrazole-4-carboxamide, N-(2-bicyclo[2.2.1]hept-2-ylphenyl)-3-bromo-1-methyl-, exo-]
IC50 (succinate dehydrogenase): 0.011 µM
Disease Control Rating at 20 ppm (Botrytis cinerea [1]): 0
Disease Control Rating at 100 ppm (Botrytis cinerea [1]): 1
Disease Control Rating at 500 ppm (Botrytis cinerea [1]): 2
pest or weed control at 50 ppm (Botrytis cinerea [2]; [4]): 47%
pest or weed control at 200 ppm (Botrytis cinerea [2]; [5]): 85%
Disease Control Rating at 0.02 mg/mL (Rhizoctonia solani): 2
Disease Control Rating at 0.1 mg/mL (Rhizoctonia solani): 3
Disease Control Rating at 0.5 mg/mL (Rhizoctonia solani): 3

Cn1cc(C(=O)Nc2ccccc2C2CCCCC2)c(C#N)n1 [Example 4, 1H-pyrazole-4-carboxamide, 3-cyano-N-(2-cyclohexylphenyl)-1-methyl-]
IC50 (succinate dehydrogenase): 0.065 µM
Disease Control Rating at 20 ppm (Botrytis cinerea [1]): 1
Disease Control Rating at 100 ppm (Botrytis cinerea [1]): 2
Disease Control Rating at 500 ppm (Botrytis cinerea [1]): 2
pest or weed control at 50 ppm (Botrytis cinerea [2]; [4]): 29%
pest or weed control at 200 ppm (Botrytis cinerea [2]; [5]): 58%
Disease Control Rating at 0.5 mg/mL (Rhizoctonia solani): 0

C=C(c1ccccc1NC(=O)c1cn(C)nc1C(F)(F)F)C1CCCC1 [Example 34, 1H-pyrazole-4-carboxamide, N-[2-(1-cyclopentylethenyl)phenyl]-1-methyl-3-(trifluoromethyl)-]
IC50 (succinate dehydrogenase): 0.0059 µM
Disease Control Rating at 20 ppm (Botrytis cinerea [1]): 0
Disease Control Rating at 100 ppm (Botrytis cinerea [1]): 2
Disease Control Rating at 500 ppm (Botrytis cinerea [1]): 2
pest or weed control at 50 ppm (Botrytis cinerea [2]; [4]): 44%
pest or weed control at 200 ppm (Botrytis cinerea [2]; [5]): 11%
Disease Control Rating at 0.02 mg/mL (Rhizoctonia solani): 2
Disease Control Rating at 0.1 mg/mL (Rhizoctonia solani): 3
Disease Control Rating at 0.5 mg/mL (Rhizoctonia solani): 3

COc1ccc(C2CCCCC2)c(NC(=O)c2cn(C)nc2C(F)(F)F)c1 [Example 32, 1H-pyrazole-4-carboxamide, N-(2-cyclohexyl-5-methoxyphenyl)-1-methyl-3-(trifluoromethyl)-]
IC50 (succinate dehydrogenase): 0.11 µM
Disease Control Rating at 20 ppm (Botrytis cinerea [1]): 0
Disease Control Rating at 100 ppm (Botrytis cinerea [1]): 1
Disease Control Rating at 500 ppm (Botrytis cinerea [1]): 2
pest or weed control at 50 ppm (Botrytis cinerea [2]; [4]): 6%
pest or weed control at 200 ppm (Botrytis cinerea [2]; [5]): 5%
Disease Control Rating at 0.5 mg/mL (Rhizoctonia solani): 0

Cn1cc(C(=O)Nc2ccccc2C2CCCCCCC2)c(C(F)F)n1 [Example 24, 1H-pyrazole-4-carboxamide, N-(2-cyclooctylphenyl)-3-(difluoromethyl)-1-methyl-]
IC50 (succinate dehydrogenase): 0.0012 µM
Disease Control Rating at 20 ppm (Botrytis cinerea [1]): 1
Disease Control Rating at 100 ppm (Botrytis cinerea [1]): 2
Disease Control Rating at 500 ppm (Botrytis cinerea [1]): 2
pest or weed control at 50 ppm (Botrytis cinerea [2]; [4]): 87%
pest or weed control at 200 ppm (Botrytis cinerea [2]; [5]): 100%
Disease Control Rating at 0.02 mg/mL (Rhizoctonia solani): 3
Disease Control Rating at 0.1 mg/mL (Rhizoctonia solani): 3
Disease Control Rating at 0.5 mg/mL (Rhizoctonia solani): 3

Cn1nc(C(F)(F)F)c(C(=O)Nc2ccccc2[C@@H]2C[C@H]3CC[C@@H]2C3)c1F (relative stereo) [Example 85, 1H-pyrazole-4-Carboxamide, N-(2-bicyclo[2.2.1]hept-2-ylphenyl)-5-fluoro-1-methyl-3-(trifluoromethyl)-, exo-]
IC50 (succinate dehydrogenase): 0.01 µM
Disease Control Rating at 20 ppm (Botrytis cinerea [1]): 0
Disease Control Rating at 100 ppm (Botrytis cinerea [1]): 1
Disease Control Rating at 500 ppm (Botrytis cinerea [1]): 2
pest or weed control at 50 ppm (Botrytis cinerea [2]; [4]): 28%
pest or weed control at 200 ppm (Botrytis cinerea [2]; [5]): 99%
Disease Control Rating at 0.02 mg/mL (Rhizoctonia solani): 1
Disease Control Rating at 0.1 mg/mL (Rhizoctonia solani): 3
Disease Control Rating at 0.5 mg/mL (Rhizoctonia solani): 3

Cn1cc(C(=O)Nc2ccccc2C2CCCC2)c(Br)n1 [Example 64, 1H-pyrazole-4-carboxamide, 3-bromo-N-(2-cyclopentylphenyl)-1-methyl-]
IC50 (succinate dehydrogenase): 0.047 µM
Disease Control Rating at 20 ppm (Botrytis cinerea [1]): 1
Disease Control Rating at 100 ppm (Botrytis cinerea [1]): 1
Disease Control Rating at 500 ppm (Botrytis cinerea [1]): 2
pest or weed control at 50 ppm (Botrytis cinerea [2]; [4]): 10%
pest or weed control at 200 ppm (Botrytis cinerea [2]; [5]): 28%
Disease Control Rating at 0.02 mg/mL (Rhizoctonia solani): 1
Disease Control Rating at 0.1 mg/mL (Rhizoctonia solani): 3
Disease Control Rating at 0.5 mg/mL (Rhizoctonia solani): 3

CC1C=C(c2ccccc2NC(=O)c2cn(C)nc2C(F)(F)F)CC1 (centres unmarked) [Example 148, 1H-pyrazole-4-carboxamide, N-[2-(3-methyl-1-cyclopenten-1-yl)phenyl]-1-methyl-3-(trifluoromethyl)-]
IC50 (succinate dehydrogenase): 0.027 µM
Disease Control Rating at 20 ppm (Botrytis cinerea [1]): 0
Disease Control Rating at 100 ppm (Botrytis cinerea [1]): 2
Disease Control Rating at 500 ppm (Botrytis cinerea [1]): 2
pest or weed control at 50 ppm (Botrytis cinerea [2]; [4]): 37%
pest or weed control at 200 ppm (Botrytis cinerea [2]; [5]): 99%
Disease Control Rating at 0.5 mg/mL (Rhizoctonia solani): 3
